Results reported in ChEMBL document CHEMBL1132029, “Specific, uncompetitive inhibition of beta-galactosidases by a 5,6-isopropylidenedioxyfuro[2,3-d]isoxazole-3-methanol derivative” (Bioorg Med Chem Lett, 1999).
Activity calls are given as the source filed them. The rule behind the calls is not given here.

Key:
[1] = target: T1, Beta-galactosidase (Aspergillus niger) (UniProt P29853); assay: Inhibitory activity against beta-galactosidase from Aspergillus niger at a concentration of 1 mM; No activity
T1 sequence (whole entry): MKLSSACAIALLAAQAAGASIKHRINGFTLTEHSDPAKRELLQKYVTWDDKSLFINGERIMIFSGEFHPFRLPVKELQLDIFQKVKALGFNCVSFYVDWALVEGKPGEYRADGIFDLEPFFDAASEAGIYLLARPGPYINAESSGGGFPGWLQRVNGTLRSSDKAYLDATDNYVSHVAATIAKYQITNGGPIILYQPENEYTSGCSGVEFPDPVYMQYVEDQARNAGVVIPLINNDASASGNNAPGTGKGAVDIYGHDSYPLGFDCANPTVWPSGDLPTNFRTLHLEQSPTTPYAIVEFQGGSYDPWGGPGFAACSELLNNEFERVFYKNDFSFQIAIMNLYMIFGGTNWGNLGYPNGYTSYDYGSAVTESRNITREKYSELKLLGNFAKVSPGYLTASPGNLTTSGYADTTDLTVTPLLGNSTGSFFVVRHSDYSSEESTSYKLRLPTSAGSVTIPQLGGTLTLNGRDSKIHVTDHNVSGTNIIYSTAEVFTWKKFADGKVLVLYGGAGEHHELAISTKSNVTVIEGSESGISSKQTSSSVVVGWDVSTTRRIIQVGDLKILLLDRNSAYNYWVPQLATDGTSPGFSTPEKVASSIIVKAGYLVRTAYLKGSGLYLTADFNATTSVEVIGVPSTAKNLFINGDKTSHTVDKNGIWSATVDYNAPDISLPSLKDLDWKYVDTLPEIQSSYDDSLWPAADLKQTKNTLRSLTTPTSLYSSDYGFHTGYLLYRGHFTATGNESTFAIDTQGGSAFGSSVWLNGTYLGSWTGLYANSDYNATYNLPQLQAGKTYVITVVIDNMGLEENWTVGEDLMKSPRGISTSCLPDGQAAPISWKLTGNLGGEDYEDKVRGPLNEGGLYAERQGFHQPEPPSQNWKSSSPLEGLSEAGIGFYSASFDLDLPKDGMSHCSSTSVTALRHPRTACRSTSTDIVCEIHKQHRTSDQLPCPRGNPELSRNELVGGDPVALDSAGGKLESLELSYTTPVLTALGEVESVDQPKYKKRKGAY

[2] = Inhibitory activity against beta-galactosidase from Aspergillus oryzae at a concentration of 1 mM; No activity
[3] = Inhibitory activity against beta-galactosidase from jack beans at a concentration of 1 mM; No activity; conditions: Canavalia ensiformis
[4] = target: Beta-glucosidase A (Caldicellulosiruptor saccharolyticus) (UniProt P10482); assay: Inhibitory activity against beta-glucosidase from Caldocellum saccharolyticum at a concentration of 1 mM; No activity
Target sequence in this assay (P10482 whole entry): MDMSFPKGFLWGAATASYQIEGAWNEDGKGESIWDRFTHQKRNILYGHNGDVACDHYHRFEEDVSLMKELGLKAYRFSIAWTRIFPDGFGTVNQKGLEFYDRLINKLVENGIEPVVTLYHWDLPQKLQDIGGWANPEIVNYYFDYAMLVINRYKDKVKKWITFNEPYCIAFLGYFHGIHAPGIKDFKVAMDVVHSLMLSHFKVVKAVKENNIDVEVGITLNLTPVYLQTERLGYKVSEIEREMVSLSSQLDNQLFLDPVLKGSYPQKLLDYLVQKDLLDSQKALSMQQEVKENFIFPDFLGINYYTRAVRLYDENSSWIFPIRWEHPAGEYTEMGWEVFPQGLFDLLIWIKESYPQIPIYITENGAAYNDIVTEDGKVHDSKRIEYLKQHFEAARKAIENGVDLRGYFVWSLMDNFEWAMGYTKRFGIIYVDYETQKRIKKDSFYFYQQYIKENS

[5] = target: Beta-glucosidase A (Caldicellulosiruptor saccharolyticus) (UniProt P10482); assay: Inhibitory activity against beta-glucosidase from Caldocellum saccharolyticum at a concentration of 1 mM; No activity
Target sequence in this assay (P10482 whole entry, looked up): as the sequence (P10482 whole entry) above

[6] = Inhibitory activity against beta-galactosidase from jack beans […]; No activity; conditions: Canavalia ensiformis
[7] = target: Beta-glucosidase A (Caldicellulosiruptor saccharolyticus, UniProt P10482); assay: Inhibition of beta-glucosidase from Caldocellum saccharolyticum
Sequence of Beta-glucosidase A (P10482 whole entry): as above

[8] = target: Beta-glucosidase A (Caldicellulosiruptor saccharolyticus) (UniProt P10482); conditions: 1 mM
Target sequence in this assay (P10482 whole entry): as above

[9] = target: T1, Beta-galactosidase (Aspergillus niger); conditions: 1 mM
[10] = target: T2, Beta-galactosidase (Aspergillus niger, UniProt P29853); assay: Inhibition of beta-galactosidase from Aspergillus niger
T2 sequence (P29853 whole entry): T1 sequence (whole entry)

[11] = Inhibitory activity against rice Alpha-galactosidase at concentration 1 mM

Activity [1]	Activity [2]	Activity [3]	Activity [4]	Activity [5]	Structure (SMILES)	also measured
inactive	inactive	inactive	inactive		COCC1=NO[C@H]2[C@@H]3OC(C)(C)O[C@@H]3O[C@@H]12	
inactive	inactive	inactive	inactive		COCOCC1=NO[C@H]2[C@@H]3OC(C)(C)O[C@@H]3O[C@@H]12	
inactive	inactive			inactive	CC1(C)O[C@@H]2O[C@H]3C(C4N[C@@H](c5ccccc5)[C@H](c5ccccc5)N4)=NO[C@H]3[C@@H]2O1	Activity [6]: inactive
					CC1(C)O[C@@H]2O[C@H]3C(CO)=NO[C@H]3[C@@H]2O1	IC50 [7]: 550 µM; Ki [7]: 5 µM; inhibition [8]: 67%; inhibition [9]: 14%; IC50 [10]: 43 µM; Ki [10]: 18 µM
inactive	inactive	inactive		inactive	CC1(C)O[C@H]2O[C@@H]3C(C4N[C@@H](c5ccccc5)[C@H](c5ccccc5)N4)=NO[C@@H]3[C@H]2O1	
inactive	inactive	inactive	inactive		OCC1=NO[C@H]2[C@H](O)C(O)O[C@@H]12 (stereo not given in full)	inhibition [11]: 59%
inactive	inactive	inactive		inactive	CC1(C)O[C@@H]2O[C@H]3C(C=O)=NO[C@H]3[C@@H]2O1	
inactive	inactive	inactive		inactive	CCOC(OCC)C1=NO[C@H]2[C@H](O)C(O)O[C@@H]12 (stereo not given in full)	
